From patent publication US20050267067A1, “Radical reaction inhibitors, method for inhibition of radical reactions, and use thereof” (priority 2002, published 2005)

What was measured:
[1] = Preservation of vitamin D3 tablets at 60° C., absorbance at 265 nm; assay type: physicochemical; settings: after preserving for 14 days
[2] = Radical oxidation of linoleic acid by AAPH (conjugated diene, TBARS); settings: for Formed TBARS / Formed conjugated diene: 37° C., AAPH; for Conjugated diene formation: (%) / TBARS formation: (%): versus system with no cyclotetrasaccharide
Text: As a negative control, a system of PBS with no cyclotetrasaccharide was provided and measured similarly as above. Conjugated diene was quantified by measuring the absorbance of test samples at a wavelength of 234 nm according to the method by Okamura et al., in Journal of Agricultural and Food Chemistry, Vol. 42, page 1,612 (1994). TABRS was quantified by allowing the sampled test specimens to react with thiobarbituric acid and measured for absorbance of the reaction mixture at a wavelength of 532 nm according to the method by Ohgawara et al., in Journal of Lipid Research, Vol. 19, page 1,053 (1978). The quantification of the formed TBARS in test samples was determined with a calibration curve provided in such a manner of diluting 1,1,3,3-tetraethoxypropane with ethanol into 10, 50 and 100 μg/ml dilutes, allowing the dilutes with thiobarbituric acid similarly as the test samples, measuring the absorbance of the resulting mixtures similarly as above, and drawing calibration curve based on the measured absorbances and the amount of TBARS calculated theoretically. The quantification of the formed conjugated diene in the test samples was determined by calculating the absorbances of the samples obtained in this experiment, based on the molar absorbance coefficient of molecules disclosed in Journal of Agricultural and Food Chemistry, Vol. 42, page 1,612 (1994). Tables 4 and 5 show the results on measurement for the formation level of conjugated diene and TBARS, respectively.

[3] = system: sucrase; test: Sucrase activity of rat small intestinal mucosal enzyme solution after AAPH oxidation; assay type: biochemical
Protocol: One milliliter of the above rat small intestinal mucosal enzyme solution, one milliliter of a 100 mM AAPH solution, one milliliter of a 50 mM phosphate buffer (pH 7.2), and one milliliter of a 400 mM of the crystalline cyclotetrasaccharide pentahydrate prepared in Experiment 1-1 were mixed, incubated at 37° C. for two hours, and measured for the activities of sucrase and maltase.
After incubated at 37° C. for 30 min, the mixture was quantified for free glucose by the GOD method.

[4] = system: low density lipoprotein (LDL); test: Oxidation of low density lipoprotein (LDL) by AAPH, absorbance at 234 nm; assay type: biochemical; settings: for Absorbance at a wavelength of 234 nm Average: 120 min after initiating the reaction
Protocol: An experiment for examining the influence of cyclotetrasaccharide on the oxidation inhibition for low density lipoprotein (LDL) was conducted as follows: Two and half milliliters of 0.5 mg/ml of a low density lipoprotein (LDL) in phosphate buffered saline (PBS, pH 7.4) was mixed with 2.5 ml of 100 mM PBS solution containing any one of the crystalline cyclotetrasaccharide pentahydrate, crystalline cyclotetrasaccharide monohydrate, and anhydrous crystalline cyclotetrasaccharide, which had been prepared in Experiment 1-1, in PBS or 2.5 ml of PBS free of cyclotetrasaccharide. The resulting mixture was admixed with 50 μl of 100 mM 2,2′-azo-bis(2-amidinopropane)dihydrochloride (AAPH) in PBS (pH 7.4) and reacted at 37° C. The reaction was continued for 240 min to examine changes on time course. […] In Table 2, the results for crystalline cyclotetrasaccharide pentahydrate are only shown because crystalline cyclotetrasaccharide pentahydrate, crystalline cyclotetrasaccharide monohydrate, and anhydrous crystalline cyclotetrasaccharide gave similar results. Also, the influence of cyclotetrasaccharide on the oxidation of a low density lipoprotein (LDL) by AAPH was examined by mixing a 2.5 ml solution containing 0.5 mg/ml of a low density lipoprotein (LDL) in PBS with 2.5 ml of a PBS solution in which the crystalline cyclotetrasaccharide pentahydrate, prepared in Experiment 1-1, had been dissolved to give a concentration of 2 mM, 10 mM or 20 mM, or 2.5 ml of PBS with no cyclotetrasaccharide; and measuring for absorbance at a wavelength of 234 nm for each of the resulting mixtures similarly as above.

[5] = reaction time 6 hr, listed as cyclotetrasaccharide

- residual vitamin D3 (%) [1]: 61%
- Sucrase activity ([3]; enzyme solution incubated with AAPH at 37° C. for two hours, with or without cyclotetrasaccharide): 0.0105 u/mg-protein
- Sucrase Relative residual activity (%) ([3]; versus system with no AAPH, 37° C., two hours): (72) %
Compound: OCC1OC2OCC3O[C@H](O[C@H]4C(O)C(CO)OC(OCC5O[C@H](O[C@@H](C1O)C2O)C(O)C(O)[C@@H]5O)C4O)C(O)C(O)[C@@H]3O (stereo partly drawn) [Cyclotetrasaccharide, cyclo{→6}-α-D-glucopyranosyl-(1→3)-α-D-glucopyranosyl-(1→6)-α-D-glucopyranosyl-(1→3)-α-D-glucopyranosyl-(1→}]
- Formed TBARS ([2]; reaction time 0 hr): 0.00 μg/g-linoleic acid
- Formed conjugated diene ([2]; reaction time 0 hr): 0.27 μg/g-linoleic acid
- Conjugated diene formation: (%) ([2]; reaction time 0 hr): (100) %
- Formed TBARS ([2]; reaction time 1 hr): 1.52 μg/g-linoleic acid
- Formed conjugated diene ([2]; reaction time 1 hr): 5.16 μg/g-linoleic acid
- Conjugated diene formation: (%) ([2]; reaction time 1 hr): (55) %
- TBARS formation: (%) ([2]; reaction time 1 hr): (55) %
- Formed TBARS ([2]; reaction time 2 hr): 3.55 μg/g-linoleic acid
- Formed conjugated diene ([2]; reaction time 2 hr): 9.15 μg/g-linoleic acid
- Conjugated diene formation: (%) ([2]; reaction time 2 hr): (51) %
- TBARS formation: (%) ([2]; reaction time 2 hr): (35) %
- Formed TBARS ([2]; reaction time 6 hr): 7.97 μg/g-linoleic acid
- Formed conjugated diene ([2]; reaction time 6 hr): 23.83 μg/g-linoleic acid
- Conjugated diene formation: (%) ([2]; reaction time 6 hr): (40) %
- TBARS formation: (%) ([2]; reaction time 6 hr, listed as Cyclotetra-saccharide): (30) %
- Conjugated diene formation: (%) [2, 5]: about 40%
- TBARS formation: (%) [2, 5]: about 30%
- Formation percentage (%) of LDL oxide ([4]; 1 mM cyclotetrasaccharide, 120 min): 76%
- Absorbance at a wavelength of 234 nm Average ([4]; 1 mM cyclotetrasaccharide): 0.163
- Formation percentage (%) of LDL oxide ([4]; 5 mM cyclotetrasaccharide, 120 min): 35%
- Absorbance at a wavelength of 234 nm Average ([4]; 5 mM cyclotetrasaccharide): 0.076
- Absorbance at a wavelength of 234 nm Average ([4]; 10 mM cyclotetrasaccharide): 0.028
- Absorbance at a wavelength of 234 nm ([4]; 50 mM cyclotetrasaccharide, 0 min after adding AAPH): 0.0
- Formation percentage (%) of LDL oxide ([4]; 50 mM cyclotetrasaccharide, 30 min, versus system with no cyclotetrasaccharide): 14%
- Absorbance at a wavelength of 234 nm ([4]; 50 mM cyclotetrasaccharide, 30 min after adding AAPH): 0.018
- Formation percentage (%) of LDL oxide ([4]; 50 mM cyclotetrasaccharide, 60 min, versus system with no cyclotetrasaccharide): 20%
- Absorbance at a wavelength of 234 nm ([4]; 50 mM cyclotetrasaccharide, 60 min after adding AAPH): 0.042
- Formation percentage (%) of LDL oxide ([4]; 50 mM cyclotetrasaccharide, 120 min, versus system with no cyclotetrasaccharide): 21%
- Absorbance at a wavelength of 234 nm ([4]; 50 mM cyclotetrasaccharide, 120 min after adding AAPH): 0.046
- Formation percentage (%) of LDL oxide ([4]; 50 mM cyclotetrasaccharide, 180 min, versus system with no cyclotetrasaccharide): 23%
- Absorbance at a wavelength of 234 nm ([4]; 50 mM cyclotetrasaccharide, 180 min after adding AAPH): 0.056
- Absorbance at a wavelength of 234 nm ([4]; 50 mM cyclotetrasaccharide, 240 min after adding AAPH): 0.064
